“Also recorded” adds a separate entry of the source.

This experiment has as its target T1, GalNAc-T4 (Homo sapiens, UniProt Q8N4A0).
T1 construct: amino acid residues 36–578 of the human GalNAc-T4; histidine tag (C); made in house; host or cells: Pichia pastoris SMD1168 (pPICZαA, secreted)
Briefly: Surface plasmon resonance. The settings on record: SPR; peptide 0.01–5 mM; 25 °C, pH 7.5, 100 µM UDP, 4 mM MnCl2; in words. Type of experiment: binding. The method, then: SPR experiments were performed at 25 °C with a Biacore X-100 apparatus (Biacore AB) in 25 mM Tris buffer, 1 mM DTT, 4 mM MnCl2, 100 µM UDP, 0.01% surfactant P20, pH 7.5 (running buffer) at 25 °C. Flow cells (CM5 sensor chip; Biacore) were activated for 7 min by injecting 140 µl of 50 mM N-hydroxysuccinimide (NHS): 200 mM ethyl-3(3dimethylamino) propylcarbodiimide (EDC). GalNAc-T4 was immobilized on a flow cell 2 by injection of a 100 µg/ml protein solution diluted with 10 mM sodium acetate buffer with a flow rate of 10 µl/min for 7 min followed by an injection of 130 µl ethanolamine to block any remaining activated groups on the surface. The level of immobilization reached was about 8000 RU. Flow cell 1, used as reference, was blocked with ethanolamine at the same conditions of flow cell 2 without immobilization of protein. Affinity experiments were made using a series of different concentrations of peptide 3 in the range of 0.01–5 mM with a flow rate of 30 µl/min during 100 s. Each injection was followed by a 100 s injection of running buffer (dissociation phase). No regeneration steps were performed between injections. Response data were collected at real time and analyzed with the Biacore® X-100 Evaluation software and plotted as response shift versus analyte concentration.

T1 sequence (Q8N4A0 36-578): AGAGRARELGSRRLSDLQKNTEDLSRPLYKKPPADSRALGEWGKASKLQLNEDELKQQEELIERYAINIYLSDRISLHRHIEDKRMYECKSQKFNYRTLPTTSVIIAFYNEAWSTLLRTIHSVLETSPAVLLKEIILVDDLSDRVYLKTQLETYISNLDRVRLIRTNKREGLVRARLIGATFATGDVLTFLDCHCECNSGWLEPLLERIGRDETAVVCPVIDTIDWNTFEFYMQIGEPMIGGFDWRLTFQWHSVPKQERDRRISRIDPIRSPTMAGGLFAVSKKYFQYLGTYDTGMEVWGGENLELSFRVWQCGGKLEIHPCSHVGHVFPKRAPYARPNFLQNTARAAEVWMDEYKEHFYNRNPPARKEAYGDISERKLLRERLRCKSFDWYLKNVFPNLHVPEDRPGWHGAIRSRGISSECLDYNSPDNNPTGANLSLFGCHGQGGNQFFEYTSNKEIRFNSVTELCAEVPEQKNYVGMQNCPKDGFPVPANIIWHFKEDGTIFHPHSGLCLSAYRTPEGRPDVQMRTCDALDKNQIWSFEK

On to “GAT*GAGAGAGTTPGPG [Peptide 3, monoglycopeptide GAT*…, T* denotes the Thr-O-GalNAc moiety]”, for which the “Kd determinability / binding saturation” value is “binding saturation could not be achieved; also recorded: binding saturation was not achieved”.

The values above are taken from article PMC5716993, “The interdomain flexible linker of the polypeptide GalNAc transferases dictates their long-range glycosylation preferences” (Nature Communications, 2017).
